Test results published in patent publication US5192507A (priority 1991, dated 1993).
Values joined by “and” are separate entries in the source; they are usually repeats but may differ in a detail not shown here. Equal values may be shown once.

Experiments:
[1] = test system: acetylcholine receptor (AChR); format: binding, Electrophorus electricus
[2] = test system: opiate receptor (OpR); format: binding, rat
[3] = test system: acetylcholine receptor (AChR); format: binding, Electrophorus electricus; remark: listed apart in the source

## OC[C@H]1OC(O)[C@H](O)[C@@H](O)[C@@H]1O (stereo partly shown) [Glucose]
[1]
  % Change with respect to control sensor: 3% and 0% and 6% and 5%
  change in resistance between control and AChR sensors (in words): no change

## CN1CC[C@]23CCCC[C@H]2[C@H]1Cc1ccc(O)cc13 [Levorphanol]
[2]
  Δ% (difference between resistance changes of test and control chips): 10%
  ΔK.OMEGA. (change in resistance across the biosensor circuit): -160

## CCCCCCCC[N+](C)(C)CCCS(=O)(=O)[O-] [Zwittergent ™ 3-08]
[3]
  % Activity Increase (AChR membrane activity): 55%

## CCCCCCCCCC[N+](C)(C)CCCS(=O)(=O)[O-] [Zwittergent ™ 3-10]
[3]
  % Activity Increase (AChR membrane activity): 13%

## Triton ™ X-100
[3]
  increase in retention of binding activity of AChR: more than 90%
